Tested on: Pyrenophora teres
Assay: In vivo test on Pyrenophora teres (barley net blotch)
Settings: dose of 110 ppm; barley plants (Express variety), preventive spray 24 hours before contamination; grading 12 days after contamination
Protocol: The active ingredients tested are prepared by homogenization in a mixture of acetone/tween/DMSO, then diluted with water to obtain the desired active material concentration.
Barley plants (Express variety), sown on a 50/50 peat soil-pozzolana substrate in starter cups and grown at 12° C., are treated at the 1-leaf stage (10 cm tall) by spraying with the active ingredient prepared as described above. Plants, used as controls, are treated with the mixture of acetone/tween/DMSO/water not containing the active material.
After 24 hours, the plants are contaminated by spraying them with an aqueous suspension of Pyrenophora teres spores (12,000 spores per ml). The spores are collected from a 12-day-old culture. The contaminated barley plants are incubated for 24 hours at about 20° C. and at 100% relative humidity, and then for 12 days at 80% relative humidity.
Grading is carried out 12 days after the contamination, in comparison with the control plants.

O=C(NCCCCc1ncc(C(F)(F)F)cc1Cl)c1ccccc1C(F)(F)F [Compound 1]
efficacy (grading in comparison with the control plants): at least 60%

— patent US20090318290A1, “N-(4-PYRIDIN-2-YLBUTYL) BENZAMIDE DERIVATIVES AND THEIR USE AS FUNGICIDES” (BAYER CROPSCIENCE SA, priority 2006, published 2009)
